The values below come from PubChem BioAssay (NCI).

Test systems include OVCAR-8 ovarian; SNB-75 CNS; UO-31 renal; SN12C renal; DU-145 prostate; ACHN renal; NCI-H522 lung; SNB-19 CNS.
Holding throughout (experiment): inhibition of tumour cell growth, NCI panel, 48 h

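Briefly, cells in 96-well plates were exposed to five compound concentrations for 48 h, and endpoints were estimated by linear interpolation. At the GI50, growth is halved. TGI is the concentration that stops growth completely.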 Bounds are passed on as bounds.

Turning to `COc1ccc(OC)c(/C=C/c2cnnc3ccccc23)c1`, the TGI in the assay with OVCAR-8 ovarian, in the assay with SNB-75 CNS, in the assay on UO-31 renal, with SN12C renal, in the assay with DU-145 prostate and in the assay on ACHN renal was above 10 µM in each case. Also, the TGI in the assay with NCI-H522 lung and in the assay on SNB-19 CNS was above 10 µM each time.
For `CCNCCNc1cc(C2CCCC2)c(C#N)c2nc3ccccc3n12`, the GI50 with OVCAR-8 ovarian was 3.52 µM; in the assay on SNB-75 CNS it was 1.63 µM; in the assay on UO-31 renal, 1.67 µM; with SN12C renal, 3.61 µM; in the assay with DU-145 prostate it was 3.71 µM; with ACHN renal, 1.91 µM. The GI50 in the assay on NCI-H522 lung is 2.26 µM; with SNB-19 CNS it was 6.26 µM. For the same compound, the TGI is 10.6 µM in the assay with OVCAR-8 ovarian; 4.02 µM in the assay with SNB-75 CNS; 3.18 µM in the assay with UO-31 renal; 12.9 µM in the assay with SN12C renal; 13.8 µM with DU-145 prostate; 4 µM in the assay with ACHN renal. The TGI stood at 5.33 µM in the assay with NCI-H522 lung and 21.1 µM in the assay with SNB-19 CNS.
On to `O=C(Nc1cc(Cl)cc(Cl)c1)c1ccc(NC2=C(Cl)C(=O)N(Cc3ccccc3)C2=O)cc1`, for which the GI50 with OVCAR-8 ovarian was 2.62 µM; in the assay with SNB-75 CNS, 35.4 µM; in the assay on UO-31 renal, 2.29 µM; in the assay with SN12C renal, 6.83 µM; in the assay on DU-145 prostate, 0.96 µM; in the assay on ACHN renal it was 1.82 µM. Besides, the GI50 in the assay on NCI-H522 lung is 7.78 µM; in the assay with SNB-19 CNS, 41.7 µM. Besides, the TGI is 6.32 µM in the assay with OVCAR-8 ovarian; 74.5 µM in the assay with SNB-75 CNS; 6.01 µM with UO-31 renal; 22.6 µM in the assay with SN12C renal; 6.91 µM in the assay on DU-145 prostate; 7.77 µM in the assay on ACHN renal. In addition, the TGI in the assay with NCI-H522 lung was 25.7 µM; in the assay with SNB-19 CNS, above 100 µM.
In the case of `O=C(Nc1cccc2ccccc12)c1cc2ccccc2cc1O`, the GI50 was 2.52 µM with OVCAR-8 ovarian; 1.6 µM with SNB-75 CNS; 1.22 µM with UO-31 renal; 2.4 µM with SN12C renal; 3.84 µM in the assay with DU-145 prostate; 2.44 µM with ACHN renal. Moreover, the results for the GI50 in the assay with NCI-H522 lung and with SNB-19 CNS were 1.66 µM and 3.17 µM, respectively. The TGI with OVCAR-8 ovarian is 8.25 µM; in the assay with SNB-75 CNS, 6.11 µM; in the assay on UO-31 renal, 4.95 µM; in the assay on SN12C renal, 9.97 µM; with DU-145 prostate, above 100 µM; in the assay with ACHN renal, 7.89 µM. The TGI with NCI-H522 lung is 4.83 µM; in the assay on SNB-19 CNS it was above 100 µM.
`COc1ccc(-c2oncc2-c2cc(OC)c3c(c2)OCO3)cc1`: the GI50 in the assay on OVCAR-8 ovarian is 4.86 µM; in the assay with SNB-75 CNS, 1.43 µM; with UO-31 renal, 4.46 µM; with SN12C renal it was 5.23 µM; in the assay on DU-145 prostate, 3.93 µM; in the assay on ACHN renal, 4.81 µM. Also, the GI50 is 1.44 µM in the assay with NCI-H522 lung and 5.25 µM with SNB-19 CNS. Also, the TGI with OVCAR-8 ovarian was above 100 µM; in the assay with SNB-75 CNS it was 5.12 µM; in the assay on UO-31 renal it was 55.9 µM; in the assay with SN12C renal, above 100 µM; in the assay with DU-145 prostate, above 100 µM; in the assay on ACHN renal it was above 100 µM. Moreover, the TGI was 5.77 µM with NCI-H522 lung and above 100 µM in the assay on SNB-19 CNS.
Consider `Cn1cc(-c2nc(-c3cn(C)c4ncccc34)cs2)c2cc(F)ccc21`, for which the GI50 in the assay on OVCAR-8 ovarian was 3.26 µM; in the assay with SNB-75 CNS, 1.27 µM; with SN12C renal it was 3.63 µM; in the assay with DU-145 prostate, 2.79 µM; in the assay with ACHN renal, 2.96 µM; in the assay on NCI-H522 lung, 0.367 µM. The GI50 with SNB-19 CNS was 2.89 µM. The TGI with OVCAR-8 ovarian is above 100 µM; in the assay on SNB-75 CNS, 4.27 µM; in the assay on SN12C renal, above 100 µM; with DU-145 prostate it was 21.9 µM; in the assay on ACHN renal, above 100 µM; with NCI-H522 lung it was 7.57 µM. This compound returned a TGI in the assay on SNB-19 CNS above 100 µM.
Take `NNc1nc(-c2ccccn2)nc2sc3c(c12)CCCCCC3`: the GI50 in the assay on OVCAR-8 ovarian is 4.39 µM; in the assay on SNB-75 CNS it was 12.6 µM; in the assay with UO-31 renal, 1.03 µM; with SN12C renal, 6.36 µM; in the assay with DU-145 prostate, 9.48 µM; with ACHN renal, 4.87 µM. In the assay on NCI-H522 lung, the GI50 was 12.1 µM. The TGI in the assay with OVCAR-8 ovarian is above 100 µM; with SNB-75 CNS, 95.9 µM; in the assay with UO-31 renal it was 18.7 µM; in the assay with SN12C renal, above 100 µM; in the assay with DU-145 prostate it was above 100 µM; in the assay on ACHN renal, 63.9 µM. Moreover, the TGI in the assay with NCI-H522 lung came to 68.3 µM.
For `COc1cc2c(cc1C)NC(=O)/C2=C/c1c(C)nc2sc(C)cn12`, the GI50 with OVCAR-8 ovarian is above 100 µM; in the assay on UO-31 renal, 86.6 µM; in the assay with SN12C renal, 74.5 µM; in the assay on DU-145 prostate, above 100 µM; in the assay on ACHN renal, above 100 µM; in the assay with NCI-H522 lung it was 52.5 µM. The GI50 in the assay with SNB-19 CNS was above 100 µM. For the same compound, the TGI in the assay with OVCAR-8 ovarian, in the assay on UO-31 renal, in the assay with SN12C renal, in the assay with DU-145 prostate, in the assay with ACHN renal and in the assay with NCI-H522 lung was above 100 µM each time. Moreover, in the assay with SNB-19 CNS, the TGI was above 100 µM.
Consider `O=C(O)C#Cc1ccc([N+](=O)[O-])cc1`, for which the TGI with OVCAR-8 ovarian, with UO-31 renal, in the assay on SN12C renal, in the assay on DU-145 prostate, with ACHN renal and in the assay on SNB-19 CNS was above 100 µM each time.
As to `COc1ccc2c(c1)N(CCC1CCCCN1C)c1ccccc1S2` (configuration not stated), the TGI in the assay with OVCAR-8 ovarian is 30.9 µM; with SNB-75 CNS, 24.6 µM; with SN12C renal, 29.4 µM; in the assay with DU-145 prostate, 26.2 µM; with ACHN renal, 28.1 µM; in the assay with NCI-H522 lung, 28 µM. This compound also came in with a TGI with SNB-19 CNS of 28.9 µM.
`C#Cc1ccc(-n2c(/C=C/c3ccc4ccccc4n3)nc3ncccc3c2=O)cc1`: the GI50 was 0.763 µM in the assay with OVCAR-8 ovarian; 0.389 µM in the assay on SNB-75 CNS; 0.403 µM in the assay on UO-31 renal; 0.469 µM with SN12C renal; 0.281 µM in the assay on NCI-H522 lung. Also, the TGI with OVCAR-8 ovarian came to 2.95 µM; in the assay on SNB-75 CNS, 1.45 µM; with UO-31 renal, 1.8 µM; in the assay with SN12C renal, 2.03 µM; with NCI-H522 lung, 0.779 µM.
